Assay results: US11058661B2, “Compositions and methods for lowering triglycerides in a subject on concomitant statin therapy and having hsCRP levels of at least about 2 mg/L” (priority 2018, dated 2021)

Assays:
[1] = AAMI pilot study: essential fatty acids in plasma and RBC; assay type: in vivo, human
Procedure: Blood samples (10 mL) were collected at Visit 1 (screening) and at Visits 4, 5 and 6. Analysis was performed by MSR Lipid Analysis, Scottish Crop Research Institute, Dundee, UK. The screening sample acted as baseline for the EFA measurements. Lipid was extracted from plasma, serum and RBC suspensions and converted into fatty acid methyl esters which were analyzed by gas chromatography to give fatty acid profiles as micrograms fatty acid per gram of sample (μgFA/g) and normalized area percent. RBC and plasma EFA data were collected at baseline, Day 14, 28 and 42 and summarized by visit for each treatment group. Change from baseline and percent change from baseline were also summarized. ANCOVA comparison of ethyl-EPA dose groups and ethyl-EPA versus placebo was performed.

[2] = tested on: subjects with Age-Associated Memory Impairment (safety population); assay: AAMI pilot study: safety and tolerability; assay type: in vivo, human
Procedure: All randomized subjects that received at least 1 dose of study medication were included in the Safety Population.
Safety evaluations were based on the safety population. Safety and tolerability were assessed in terms of AEs, vital signs, 12-lead ECG, clinical laboratory data, medical history, and study drug compliance. Safety and tolerability data were presented by treatment group.

**Q.** For CC/C=C\C/C=C\C/C=C\C/C=C\C/C=C\CCCC(=O)OCC [Icosapent Ethyl, ethyl eicosapentaenoate], which “DHA LS Mean, 1 g versus 4 g” value ([1]; RBC) is on record?
**A.** Its value is 1.0 µg/g.

**Q.** What about the “DHA LS Mean, 2 g versus 4 g” value ([1]; RBC) of the same compound?
**A.** Its value is 1.0 µg/g.

**Q.** What about the “DPAn-3 LS Mean, 1 g versus 4 g” value ([1]; RBC) of the same compound?
**A.** The value was -6.2 µg/g.

**Q.** And the “DPAn-3 LS Mean, 2 g versus 4 g” value ([1]; RBC)?
**A.** Its value is -2.5 µg/g.

**Q.** And the “AA Mean (SD) change from Baseline” value ([1]; RBC, Day 14, 1 g)?
**A.** The value was −8.1 (21.95) μg/g.

**Q.** What about the “DGLA Mean (SD) change from Baseline” value ([1]; RBC, Day 14, 1 g) of the same compound?
**A.** Its value is −2.7 (3.82) μg/g.

**Q.** What about the “DHA Mean (SD) change from Baseline” value ([1]; RBC, Day 14, 1 g) of the same compound?
**A.** Its value is −4.6 (9.76) μg/g.

**Q.** And the “DPAn-3 Mean (SD) change from Baseline” value ([1]; RBC, Day 14, 1 g)?
**A.** Its value is 0.9 (5.03) μg/g.

**Q.** And the “EPA/AA Mean (SD) change from Baseline” value ([1]; RBC, Day 14, 1 g)?
**A.** Its value is 0.1 (0.04) μg/g.

**Q.** What about the “AA Mean (SD) change from Baseline” value ([1]; RBC, Day 14, 2 g) of the same compound?
**A.** The value was −3.1 (25.84) μg/g.

**Q.** And the “DGLA Mean (SD) change from Baseline” value ([1]; RBC, Day 14, 2 g)?
**A.** The value was −2.6 (3.54) μg/g.

**Q.** And the “DHA Mean (SD) change from Baseline” value ([1]; RBC, Day 14, 2 g)?
**A.** Its value is −2.0 (9.46) μg/g.

**Q.** What about the “DPAn-3 Mean (SD) change from Baseline” value ([1]; RBC, Day 14, 2 g) of the same compound?
**A.** Its value is 5.6 (6.28) μg/g.

**Q.** What about the “EPA/AA Mean (SD) change from Baseline” value ([1]; RBC, Day 14, 2 g) of the same compound?
**A.** Its value is 0.2 (0.04) μg/g.

**Q.** And the “DGLA Mean (SD) change from Baseline” value ([1]; RBC, Day 14, 4 g)?
**A.** The value was −5.3 (4.10) μg/g.

**Q.** What about the “DHA Mean (SD) change from Baseline” value ([1]; RBC, Day 14, 4 g) of the same compound?
**A.** Its value is −6.9 (9.13) μg/g.

**Q.** And the “DPAn-3 Mean (SD) change from Baseline” value ([1]; RBC, Day 14, 4 g)?
**A.** Its value is 5.4 (5.38) μg/g.

**Q.** What about the “EPA/AA Mean (SD) change from Baseline” value ([1]; RBC, Day 14, 4 g) of the same compound?
**A.** The value was 0.3 (0.07) μg/g.

**Q.** What about the “AA Mean (SD) change from Baseline” value ([1]; RBC, Day 28, 1 g) of the same compound?
**A.** The value was −17.0 (20.69) μg/g.

**Q.** And the “DGLA Mean (SD) change from Baseline” value ([1]; RBC, Day 28, 1 g)?
**A.** Its value is −3.8 (3.31) μg/g.

**Q.** What about the “DHA Mean (SD) change from Baseline” value ([1]; RBC, Day 28, 1 g) of the same compound?
**A.** Its value is −6.4 (11.57) μg/g.

**Q.** And the “DPAn-3 Mean (SD) change from Baseline” value ([1]; RBC, Day 28, 1 g)?
**A.** The value was 3.3 (5.42) μg/g.

**Q.** What about the “EPA/AA Mean (SD) change from Baseline” value ([1]; RBC, Day 28, 1 g) of the same compound?
**A.** The value was 0.1 (0.05) μg/g.

**Q.** What about the “DGLA Mean (SD) change from Baseline” value ([1]; RBC, Day 28, 2 g) of the same compound?
**A.** Its value is −4.5 (3.58) μg/g.

**Q.** What about the “DHA Mean (SD) change from Baseline” value ([1]; RBC, Day 28, 2 g) of the same compound?
**A.** The value was −6.2 (9.34) μg/g.

**Q.** What about the “DPAn-3 Mean (SD) change from Baseline” value ([1]; RBC, Day 28, 2 g) of the same compound?
**A.** The value was 9.4 (6.74) μg/g.

**Q.** What about the “EPA/AA Mean (SD) change from Baseline” value ([1]; RBC, Day 28, 2 g) of the same compound?
**A.** Its value is 0.02 (0.06) μg/g.

**Q.** And the “DGLA Mean (SD) change from Baseline” value ([1]; RBC, Day 28, 4 g)?
**A.** The value was −7.1 (4.63) μg/g.

**Q.** What about the “DHA Mean (SD) change from Baseline” value ([1]; RBC, Day 28, 4 g) of the same compound?
**A.** Its value is −8.7 (11.63) μg/g.

**Q.** What about the “EPA/AA Mean (SD) change from Baseline” value ([1]; RBC, Day 28, 4 g) of the same compound?
**A.** The value was 0.4 (0.11) μg/g.

**Q.** What about the “DGLA Mean (SD) change from Baseline” value ([1]; RBC, Day 42, 1 g) of the same compound?
**A.** Its value is −3.5 (4.51) μg/g.

**Q.** What about the “DHA Mean (SD) change from Baseline” value ([1]; RBC, Day 42, 1 g) of the same compound?
**A.** The value was −7.0 (12.20) μg/g.

**Q.** And the “DPAn-3 Mean (SD) change from Baseline” value ([1]; RBC, Day 42, 1 g)?
**A.** Its value is 6.5 (6.19) μg/g.

**Q.** What about the “EPA/AA Mean (SD) change from Baseline” value ([1]; RBC, Day 42, 1 g) of the same compound?
**A.** The value was 0.1 (0.06) μg/g.

**Q.** What about the “DGLA Mean (SD) change from Baseline” value ([1]; RBC, Day 42, 2 g) of the same compound?
**A.** The value was −5.3 (3.65) μg/g.

**Q.** What about the “DHA Mean (SD) change from Baseline” value ([1]; RBC, Day 42, 2 g) of the same compound?
**A.** The value was −6.3 (9.42) μg/g.

**Q.** And the “EPA/AA Mean (SD) change from Baseline” value ([1]; RBC, Day 42, 2 g)?
**A.** Its value is 0.3 (0.06) μg/g.

**Q.** And the “DGLA Mean (SD) change from Baseline” value ([1]; RBC, Day 42, 4 g)?
**A.** The value was −8.0 (4.98) μg/g.

**Q.** And the “EPA/AA Mean (SD) change from Baseline” value ([1]; RBC, Day 42, 4 g)?
**A.** The value was 0.4 (0.14) μg/g.

**Q.** What about the “DPAn-3 LS Mean, 2 g versus 4 g” value ([1]; plasma) of the same compound?
**A.** Its value is -9.5 µg/g.

**Q.** And the “EPA values, change from baseline” value ([1]; plasma and RBC, to Day 42, 1, 2 and 4 g groups)?
**A.** The value was “increased substantially from baseline”.

**Q.** And the “AA Mean (SD) change from Baseline” value ([1]; plasma, Day 14, 1 g)?
**A.** Its value is −9.7 (22.20) μg/g.

**Q.** And the “DHA Mean (SD) change from Baseline” value ([1]; plasma, Day 14, 1 g)?
**A.** Its value is −6.4 (13.30) μg/g.

**Q.** What about the “DPAn-3 Mean (SD) change from Baseline” value ([1]; plasma, Day 14, 1 g) of the same compound?
**A.** The value was 7.5 (5.11) μg/g.

**Q.** What about the “EPA/AA Mean (SD) change from Baseline” value ([1]; plasma, Day 14, 1 g) of the same compound?
**A.** Its value is 0.3 (0.4) μg/g.

**Q.** And the “DHA Mean (SD) change from Baseline” value ([1]; plasma, Day 14, 2 g)?
**A.** Its value is −5.4 (14.29) μg/g.

**Q.** And the “EPA/AA Mean (SD) change from Baseline” value ([1]; plasma, Day 14, 2 g)?
**A.** The value was 0.6 (0.23) μg/g.

**Q.** And the “EPA/AA Mean (SD) change from Baseline” value ([1]; plasma, Day 14, 4 g)?
**A.** The value was 1.1 (0.28) μg/g.

**Q.** What about the “DHA Mean (SD) change from Baseline” value ([1]; plasma, Day 28, 1 g) of the same compound?
**A.** Its value is −6.6 (15.53) μg/g.

**Q.** And the “DPAn-3 Mean (SD) change from Baseline” value ([1]; plasma, Day 28, 1 g)?
**A.** Its value is 3.9 (5.62) μg/g.

**Q.** And the “EPA/AA Mean (SD) change from Baseline” value ([1]; plasma, Day 28, 1 g)?
**A.** The value was 0.3 (0.20) μg/g.

**Q.** What about the “DHA Mean (SD) change from Baseline” value ([1]; plasma, Day 28, 2 g) of the same compound?
**A.** The value was −8.1 (15.82) μg/g.

**Q.** What about the “EPA/AA Mean (SD) change from Baseline” value ([1]; plasma, Day 28, 2 g) of the same compound?
**A.** The value was 0.8 (0.35) μg/g.

**Q.** What about the “EPA/AA Mean (SD) change from Baseline” value ([1]; plasma, Day 28, 4 g) of the same compound?
**A.** The value was 1.3 (0.42) μg/g.

**Q.** And the “AA Mean (SD) change from Baseline” value ([1]; plasma, Day 42, 1 g)?
**A.** The value was −8.7 (31.35) μg/g.

**Q.** What about the “DGLA Mean (SD) change from Baseline” value ([1]; plasma, Day 42, 1 g) of the same compound?
**A.** The value was −9.4 (9.41) μg/g.

**Q.** What about the “DHA Mean (SD) change from Baseline” value ([1]; plasma, Day 42, 1 g) of the same compound?
**A.** Its value is −5.4 (18.17) μg/g.

**Q.** And the “EPA/AA Mean (SD) change from Baseline” value ([1]; plasma, Day 42, 1 g)?
**A.** The value was 0.3 (0.24) μg/g.

**Q.** What about the “DHA Mean (SD) change from Baseline” value ([1]; plasma, Day 42, 2 g) of the same compound?
**A.** Its value is −6.0 (16.69) μg/g.

**Q.** And the “EPA/AA Mean (SD) change from Baseline” value ([1]; plasma, Day 42, 2 g)?
**A.** The value was 0.7 (0.29) μg/g.

**Q.** And the “DPAn-3 Mean (SD) change from Baseline” value ([1]; plasma, Day 42, 4 g)?
**A.** Its value is 32.0 (16.01) μg/g.

**Q.** And the “EPA/AA Mean (SD) change from Baseline” value ([1]; plasma, Day 42, 4 g)?
**A.** The value was 1.3 (0.45) μg/g.

**Q.** And the “subjects with nausea Probably Related to the study drug” value ([2]; 1 g)?
**A.** Its value is “One”.

**Q.** What about the “subjects with nausea Possibly Related to the study drug” value (from here on “subjects with nausea Possibly Related”) ([2]; 1 g cohort) of the same compound?
**A.** Its value is “two”.

**Q.** And the “subjects with nausea Possibly Related” value ([2]; 2 g cohort)?
**A.** The value was “one”.

**Q.** And the “subjects discontinued due to TEAEs” value ([2]; 2 g group)?
**A.** The value was 2 subjects.

**Q.** And the SAE reported ([2]; 2 g group, judged unrelated to study drug)?
**A.** The SAE reported was “One”.

**Q.** And the “subjects with diarrhea Probably Related to the study drug” value ([2]; 4 g)?
**A.** The value was “Another subject”.

**Q.** And the “subjects with nausea Possibly Related” value ([2]; 4 g cohort)?
**A.** Its value is “two”.

**Q.** What about the TEAEs reported ([2]; all ethyl-EPA treatment groups, 6 weeks) of the same compound?
**A.** Its TEAEs reported is 105 events.

**Q.** What about the “TEAEs Definitely Related to the study drug” value ([2]; all groups) of the same compound?
**A.** The value was “No TEAEs”.

**Q.** What about the “deaths during the study” value ([2]; all groups) of the same compound?
**A.** Its value is “no deaths”.
